This is an account of results in ChEMBL document CHEMBL1201862, “PubChem BioAssay data set” (2004).

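How tested: cells in 96-well plates exposed to compound for 48 hours at five concentrations. GI50 = concentration required for 50% inhibition of growth.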 The source made the active and inactive calls. No stated cut-off is given here; in the data, active = GI50 up to about 1.1 µM and inactive = higher.

Test systems include DMS-114; DMS-273; KM-20L2; LXFL 529; M19-MEL; RXF 631; XF498; BT-549; PC-3.
What all share (test): NCI tumour cell line growth inhibition, 48 h

As to `COC(C(=O)NCCCCNC(=O)C(OC)c1ccccc1)c1ccccc1` (stereo not given), the GI50 with DMS-114, in the test on DMS-273, in the test on KM-20L2, with LXFL 529, in the test with M19-MEL and in the test with RXF 631 was > 100 µM (inactive) each time. Moreover, in the test with XF498, the GI50 is > 100 µM (inactive).

In the case of `C=CC1(C)CC(=O)C2(O)C(C)(O1)C(OC(C)=O)C(O)C1C(C)(C)CCC(O)C12C` (stereo not given), the GI50 was 52.8 µM (inactive) in the test with DMS-114; > 139 µM (inactive) in the test with DMS-273; 110 µM (inactive) with KM-20L2; > 100 µM (inactive) in the test with LXFL 529; 104 µM (inactive) with M19-MEL; > 100 µM (inactive) in the test with RXF 631. The GI50 in the test on XF498 is 61.8 µM (inactive).

Turning to `Cc1ccccc1-c1c(N)nc(N)nc1C(=O)Nc1nccs1`, the GI50 in the test on DMS-114, in the test with DMS-273, with KM-20L2, in the test with LXFL 529, in the test with M19-MEL and with RXF 631 was > 100 µM (inactive) in each case. For the same compound, in the test on XF498, the GI50 was > 100 µM (inactive).

For the compound `CCC(=O)OC[n+]1ccc2c(C)c3[nH]c4ccccc4c3c(C)c2c1`, the GI50 in the test on DMS-114 was 0.608 µM (active); with KM-20L2, 0.504 µM (active); in the test with LXFL 529, 0.413 µM (active); with M19-MEL, 0.681 µM (active); in the test with RXF 631 it was 0.504 µM (active); with XF498, 1.88 µM (inactive).

`CNC(=S)NNC(=O)c1c(C)nc2sccn12`: the GI50 in the test on DMS-273, in the test with KM-20L2, in the test on LXFL 529, in the test with M19-MEL, with RXF 631 and with XF498 was > 100 µM (inactive) each time.

With `CC12CCC(CC1)C(C)(C)O2` [EUCALYPTOL], the GI50 with DMS-114 is 24.4 µM (inactive); in the test with DMS-273 it was 3.56 µM (inactive); with KM-20L2, 38.8 µM (inactive); in the test with LXFL 529, > 100 µM (inactive); with M19-MEL, 11.5 µM (inactive); with RXF 631, > 100 µM (inactive). Besides, the GI50 with XF498 is 2.16 µM (inactive).

On to `O=C(OCC1CO1)c1cccs1` (stereo not given), for which the GI50 in the test with DMS-114, in the test with DMS-273, in the test on KM-20L2, with LXFL 529, with M19-MEL and in the test with RXF 631 was > 100 µM (inactive) each time. Further, the GI50 in the test with XF498 was > 100 µM (inactive).

In the case of `COc1ccc(CNc2cnc3cc(N)ccc3n2)cc1`, the GI50 with DMS-114, in the test on DMS-273, in the test with KM-20L2, with LXFL 529, with M19-MEL and with XF498 was > 100 µM (inactive) in each case.

As for `CC[C@@]12N=C(N(C)C)C[C@]1(O)ON=C2C`, the GI50 in the test with DMS-114, in the test with DMS-273, in the test with KM-20L2, in the test with LXFL 529, in the test on M19-MEL and with XF498 was > 100 µM (inactive) throughout.

In the case of `C=CCNC1=NC(=O)C(CC(=O)Nc2ccc([N+](=O)[O-])cc2[N+](=O)[O-])S1` (stereo not given), the GI50 with DMS-114 is 66.5 µM (inactive); in the test with DMS-273 it was > 100 µM (inactive); in the test with KM-20L2 it was > 100 µM (inactive); in the test with LXFL 529, > 100 µM (inactive); in the test with M19-MEL, > 100 µM (inactive); in the test with RXF 631 it was > 100 µM (inactive). In the test on XF498, the GI50 is > 100 µM (inactive).

`CCCCCCCCCCCCCC(=O)O[C@H]1CC[C@H](NC(=O)[C@H](OC)[C@H](O)[C@@H](O)[C@H](O)/C=C/C(C)C)C(=O)NC1` [BENGAMIDE A]: the GI50 was 0.953 µM (active) with BT-549; 0.00512 µM (active) in the test on DMS-114; 0.00512 µM (active) with DMS-273; 0.0045 µM (active) in the test on KM-20L2; 0.00386 µM (active) in the test with LXFL 529; 0.0033 µM (active) in the test on M19-MEL. Also, the GI50 is 0.147 µM (active) with PC-3 and 0.0147 µM (active) with XF498.

For `O=C(O)c1ccc(C2=Cc3cc(Cl)ccc3OC2)cc1`, the GI50 in the test with DMS-114, with DMS-273, in the test on KM-20L2, in the test on LXFL 529, in the test with M19-MEL and in the test with XF498 was > 100 µM (inactive) throughout.

Take `CC1=C(C(=O)Nc2ccccc2)C(c2cc(Cl)cc(Cl)c2)C(C(=O)Nc2ccccc2)=C(C)N1`: the GI50 with DMS-114 was 4.26 µM (inactive); with DMS-273 it was 10.2 µM (inactive); in the test with KM-20L2, 9.06 µM (inactive); in the test on LXFL 529 it was 3.77 µM (inactive); in the test on M19-MEL it was 10.4 µM (inactive); in the test on RXF 631 it was 18 µM (inactive). Moreover, the GI50 with XF498 was 13.4 µM (inactive).

On to `c1ccc(C2=NN3CN(N2)c2ccccc2OCCCOc2ccccc23)cc1`, for which the GI50 in the test on DMS-114, in the test with DMS-273, in the test on KM-20L2, in the test with LXFL 529, in the test on M19-MEL and in the test with XF498 was > 100 µM (inactive) throughout.

For the compound `C=CC(=O)N1C/C(=C\c2ccccc2)C(=O)/C(=C/c2ccccc2)C1`, the GI50 is 1.71 µM (inactive) with BT-549; 1.01 µM (active) in the test with DMS-114; 0.668 µM (active) with DMS-273; 1.66 µM (inactive) with KM-20L2; 1.33 µM (inactive) in the test with LXFL 529; 0.979 µM (active) in the test on M19-MEL. The GI50 in the test with PC-3 is 1.69 µM (inactive); with XF498 it was 1.7 µM (inactive).

Turning to `O=[N+]([O-])c1c(/C=N/Nc2ccccc2)oc(-c2ccc3c(c2)OCO3)c1-c1ccc2c(c1)OCO2`, the GI50 with DMS-114 was 5.02 µM (inactive); with KM-20L2, 2.24 µM (inactive); with LXFL 529, 0.746 µM (active); with M19-MEL, 13.8 µM (inactive); with RXF 631 it was 65.8 µM (inactive); in the test with XF498, 2.89 µM (inactive).

Consider `NC1=C(NC(=O)Cc2ccc(F)cc2)C(=O)c2ccccc2C1=O`, for which the GI50 in the test on DMS-114 is 16 µM (inactive); with DMS-273, 33.1 µM (inactive); in the test with KM-20L2 it was > 100 µM (inactive); in the test on LXFL 529, > 100 µM (inactive); in the test with M19-MEL, 9.73 µM (inactive); in the test on RXF 631, > 60.4 µM (inactive). The GI50 in the test on XF498 was > 78.7 µM (inactive).

In the case of `COc1cc(/C=C\c2ccc(O)cc2)cc(OC)c1OC`, the GI50 in the test on DMS-114 was 2.48 µM (inactive); in the test with DMS-273, 0.35 µM (active); in the test on KM-20L2, 33.3 µM (inactive); in the test with LXFL 529, 4.18 µM (inactive); with M19-MEL, 3.66 µM (inactive); with XF498, 9.98 µM (inactive).

On to `CCCCCCCCCCCCCC(=O)NO`, for which the GI50 was 1.16 µM (inactive) with BT-549; 3.6 µM (inactive) in the test on DMS-114; 14.3 µM (inactive) in the test on DMS-273; 7.64 µM (inactive) with KM-20L2; 5.14 µM (inactive) in the test on LXFL 529; 24 µM (inactive) in the test on M19-MEL. Besides, the values for the GI50 in the test with PC-3, with RXF 631 and in the test with XF498 were 4.32 µM (inactive), 10.9 µM (inactive) and 24.4 µM (inactive), respectively.

Regarding `N#CC1C(C#N)C2(c3ccccc3)C(c3ccccc3)=NN(c3ccccc3)CC12` (stereo not given), the GI50 in the test with DMS-114 is 59.4 µM (inactive); in the test on DMS-273, > 100 µM (inactive); in the test on KM-20L2 it was > 100 µM (inactive); in the test on LXFL 529, > 100 µM (inactive); in the test on M19-MEL, > 100 µM (inactive); in the test on XF498, > 100 µM (inactive).

For `CC(C)(C)OC(=O)N1N=NC2C3OC(CC3=O)C21` (stereo not given), the GI50 in the test with DMS-114, with DMS-273, in the test on KM-20L2, in the test with LXFL 529 and in the test with RXF 631 was > 100 µM (inactive) throughout.

As to `CN(C)CCOc1cccc2c1C(=O)c1ccccc1C2=O`, the GI50 is 10.4 µM (inactive) with DMS-114; 10.1 µM (inactive) in the test with DMS-273; 13.9 µM (inactive) in the test with KM-20L2; 12.1 µM (inactive) in the test with LXFL 529; 5.65 µM (inactive) in the test on M19-MEL; 18.7 µM (inactive) in the test on XF498.

`Cc1cnc2c(c1)C(=O)C1=C(OC(C)(C)CC1O)C2=O` (stereo not given): the GI50 in the test with DMS-114 was 10.4 µM (inactive); in the test on DMS-273 it was 11.9 µM (inactive); with KM-20L2, 17.7 µM (inactive); with LXFL 529, 16.2 µM (inactive); in the test on M19-MEL, 3.1 µM (inactive); with RXF 631, > 10 µM (inactive). In the test with XF498, the GI50 is 19.5 µM (inactive).

For the compound `COC(=O)C(C(=O)C(=O)Nc1cccc(C)c1)C1=NC(N)SS1` (stereo not given), the GI50 in the test with DMS-114, in the test with DMS-273, in the test on KM-20L2, in the test with LXFL 529, in the test on M19-MEL and with RXF 631 was > 100 µM (inactive) in each case. Moreover, the GI50 in the test with XF498 is > 100 µM (inactive).
